The supplement of paper PMC10307832

Tests used:
Experiment in all cases: relative viability (nuclei count vs DMSO), 5 days (fraction); higher = more cells survive
PC-3 [JPC-3] = system: PC-3 [JPC-3]
In short: (§1)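 After 5 days of treatment, lung cancer cells in 1536-well plates were fixed and stained in a single step (final 0.05% Triton X-100, 1% formaldehyde, 1 ug/ml Hoechst) and their nuclei counted on 4× images. Treatment had been applied by pin tool the day after seeding as one drug alone or as a fixed anchor-drug dose with five library-drug doses (not always all listed) in √10 steps. Relative viability is the nuclei count of treated wells divided by that of vehicle wells, and values are medians of duplicate plates.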

RERF-LC-KJ = system: RERF-LC-KJ
In short: as §1

NCI-H2087 = system: NCI-H2087
In short: as §1

HCC-78 = system: HCC-78
In short: as §1

LOU-NH91 = system: LOU-NH91
In short: as §1

NCI-H1793 = system: NCI-H1793
In short: as §1

NCI-H1755 = system: NCI-H1755
In short: as §1

NCI-H1944 = system: NCI-H1944
In short: as §1

NCI-H1651 = system: NCI-H1651
In short: as §1

HCC-366 = system: HCC-366
In short: as §1

NCI-H2228 = system: NCI-H2228
In short: as §1

ChaGo-K-1 = system: ChaGo-K-1
In short: as §1

NCI-H1395 = system: NCI-H1395
In short: as §1

NCI-H2170 = system: NCI-H2170
In short: as §1

NCI-H3122 = system: NCI-H3122
In short: as §1

LU99A = system: LU99A
In short: as §1

LC-2-ad = system: LC-2-ad
In short: as §1

NCI-H2405 = system: NCI-H2405
In short: as §1

NCI-H460 = system: NCI-H460
In short: as §1

CAL-12T = system: CAL-12T
In short: as §1

UMC-11 = system: UMC-11
In short: as §1

With `COc1cc2nccc(Oc3ccc(NC(=O)Nc4cc(C)on4)c(Cl)c3)c2cc1OC` [Tivozanib] + Nc1nc2[nH]cc(CCc3ccc(C(=O)N[C@@H](CCC(=O)O)C(=O)O)cc3)c2c(=O)[nH]1 [Pemetrexed] (partner 0.2 µM) the relative viability (PC-3 [JPC-3]; first compound 0.01581 µM) was 1.09, the relative viability (PC-3 [JPC-3]; first compound 0.05 µM) was 1.09 and the relative viability (PC-3 [JPC-3]; first compound 0.1581 µM) was 1.06. For the same compound, the relative viability (PC-3 [JPC-3]; first compound 0.5 µM) was 0.936, the relative viability (RERF-LC-KJ; first compound 0.005 µM) was 0.465 and the relative viability (RERF-LC-KJ; first compound 0.01581 µM) was 0.441. It also gave a relative viability (RERF-LC-KJ; first compound 0.05 µM) of 0.479, a relative viability (RERF-LC-KJ; first compound 0.1581 µM) of 0.465 and a relative viability (RERF-LC-KJ; first compound 0.5 µM) of 0.439. The relative viability (NCI-H2087; first compound 0.005 µM) was 0.654, the relative viability (NCI-H2087; first compound 0.01581 µM) was 0.696 and the relative viability (NCI-H2087; first compound 0.05 µM) was 0.66. The relative viability (NCI-H2087; first compound 0.1581 µM) was 0.7, the relative viability (NCI-H2087; first compound 0.5 µM) was 0.653 and the relative viability (HCC-78; first compound 0.005 µM) was 0.925. It also gave a relative viability (HCC-78; first compound 0.01581 µM) of 0.924, a relative viability (HCC-78; first compound 0.05 µM) of 0.816 and a relative viability (HCC-78; first compound 0.1581 µM) of 0.885. For the same compound, the relative viability (HCC-78; first compound 0.5 µM) was 0.913, the relative viability (LOU-NH91; first compound 0.005 µM) was 0.341 and the relative viability (LOU-NH91; first compound 0.01581 µM) was 0.364. The relative viability (LOU-NH91; first compound 0.05 µM) was 0.371, the relative viability (LOU-NH91; first compound 0.1581 µM) was 0.525 and the relative viability (LOU-NH91; first compound 0.5 µM) was 0.338. It also gave a relative viability (NCI-H1793; first compound 0.005 µM) of 0.643, a relative viability (NCI-H1793; first compound 0.01581 µM) of 0.854 and a relative viability (NCI-H1793; first compound 0.05 µM) of 1.04. It also gave a relative viability (NCI-H1793; first compound 0.5 µM) of 0.999, a relative viability (NCI-H1755; first compound 0.005 µM) of 0.376 and a relative viability (NCI-H1755; first compound 0.01581 µM) of 0.437. For the same compound, the relative viability (NCI-H1755; first compound 0.05 µM) was 0.571, the relative viability (NCI-H1755; first compound 0.1581 µM) was 0.468 and the relative viability (NCI-H1755; first compound 0.5 µM) was 0.361. For the same compound, the relative viability (NCI-H1944; first compound 0.005 µM) was 0.545, the relative viability (NCI-H1944; first compound 0.01581 µM) was 0.568 and the relative viability (NCI-H1944; first compound 0.05 µM) was 0.652. It also gave a relative viability (NCI-H1944; first compound 0.1581 µM) of 0.659, a relative viability (NCI-H1944; first compound 0.5 µM) of 0.611 and a relative viability (NCI-H1651; first compound 0.005 µM) of 0.54. The relative viability (NCI-H1651; first compound 0.01581 µM) was 0.52, the relative viability (NCI-H1651; first compound 0.05 µM) was 0.683 and the relative viability (NCI-H1651; first compound 0.1581 µM) was 0.421. The relative viability (NCI-H1651; first compound 0.5 µM) was 0.574, the relative viability (HCC-366; first compound 0.005 µM) was 0.16 and the relative viability (HCC-366; first compound 0.01581 µM) was 0.192. The relative viability (HCC-366; first compound 0.05 µM) was 0.162, the relative viability (HCC-366; first compound 0.1581 µM) was 0.234 and the relative viability (HCC-366; first compound 0.5 µM) was 0.126. It also gave a relative viability (NCI-H2228; first compound 0.005 µM) of 0.31, a relative viability (NCI-H2228; first compound 0.01581 µM) of 0.32 and a relative viability (NCI-H2228; first compound 0.05 µM) of 0.369. It also gave a relative viability (NCI-H2228; first compound 0.1581 µM) of 0.346, a relative viability (NCI-H2228; first compound 0.5 µM) of 0.315 and a relative viability (ChaGo-K-1; first compound 0.005 µM) of 0.235. The relative viability (ChaGo-K-1; first compound 0.01581 µM) was 0.271, the relative viability (ChaGo-K-1; first compound 0.05 µM) was 0.253 and the relative viability (ChaGo-K-1; first compound 0.1581 µM) was 0.273. It also gave a relative viability (ChaGo-K-1; first compound 0.5 µM) of 0.264, a relative viability (NCI-H1395; first compound 0.005 µM) of 0.89 and a relative viability (NCI-H1395; first compound 0.01581 µM) of 1.02. The relative viability (NCI-H1395; first compound 0.05 µM) was 0.938, the relative viability (NCI-H1395; first compound 0.1581 µM) was 0.775 and the relative viability (NCI-H1395; first compound 0.5 µM) was 0.579. The relative viability (NCI-H2170; first compound 0.005 µM) was 0.24, the relative viability (NCI-H2170; first compound 0.01581 µM) was 0.262 and the relative viability (NCI-H2170; first compound 0.05 µM) was 0.56. It also gave a relative viability (NCI-H2170; first compound 0.5 µM) of 0.255, a relative viability (NCI-H3122; first compound 0.005 µM) of 0.197 and a relative viability (NCI-H3122; first compound 0.01581 µM) of 0.222. It also gave a relative viability (NCI-H3122; first compound 0.05 µM) of 0.198, a relative viability (NCI-H3122; first compound 0.1581 µM) of 0.204 and a relative viability (NCI-H3122; first compound 0.5 µM) of 0.19. For the same compound, the relative viability (LU99A; first compound 0.005 µM) was 0.161, the relative viability (LU99A; first compound 0.01581 µM) was 0.176 and the relative viability (LU99A; first compound 0.05 µM) was 0.19. It also gave a relative viability (LU99A; first compound 0.1581 µM) of 0.22, a relative viability (LU99A; first compound 0.5 µM) of 0.193 and a relative viability (LC-2-ad; first compound 0.005 µM) of 0.245. For the same compound, the relative viability (LC-2-ad; first compound 0.01581 µM) was 0.289, the relative viability (LC-2-ad; first compound 0.05 µM) was 0.274 and the relative viability (LC-2-ad; first compound 0.1581 µM) was 0.286. It also gave a relative viability (LC-2-ad; first compound 0.5 µM) of 0.245, a relative viability (NCI-H2405; first compound 0.005 µM) of 1.05 and a relative viability (NCI-H2405; first compound 0.01581 µM) of 1.13. The relative viability (NCI-H2405; first compound 0.05 µM) was 1.09, the relative viability (NCI-H2405; first compound 0.1581 µM) was 1.01 and the relative viability (NCI-H2405; first compound 0.5 µM) was 0.792. It also gave a relative viability (NCI-H460; first compound 0.005 µM) of 0.0664, a relative viability (NCI-H460; first compound 0.01581 µM) of 0.0619 and a relative viability (NCI-H460; first compound 0.05 µM) of 0.0637. It also gave a relative viability (NCI-H460; first compound 0.1581 µM) of 0.063, a relative viability (NCI-H460; first compound 0.5 µM) of 0.0689 and a relative viability (CAL-12T; first compound 0.005 µM) of 1.25. The relative viability (CAL-12T; first compound 0.01581 µM) was 1.15, the relative viability (CAL-12T; first compound 0.05 µM) was 1.13 and the relative viability (CAL-12T; first compound 0.1581 µM) was 1.13. For the same compound, the relative viability (CAL-12T; first compound 0.5 µM) was 1.12, the relative viability (UMC-11; first compound 0.005 µM) was 0.807 and the relative viability (UMC-11; first compound 0.01581 µM) was 0.698. It also gave a relative viability (UMC-11; first compound 0.05 µM) of 0.718, a relative viability (UMC-11; first compound 0.1581 µM) of 0.619 and a relative viability (UMC-11; first compound 0.5 µM) of 0.755.
